Source: patent US8614203B2, “Methods for the treatment of a central nervous system injury via a tapered administration protocol” (Emory University, priority 2005, dated 2013)

Legend:
[1] = tested on: medial frontal cortex (MFC) injury or sham; test: Example 4: Digiscan locomotor activity boxes (center time); type: in vivo, Sprague-Dawley rats
From the text: (§1) 60 male Sprague-Dawley rats weighing 290-310 g at the time of injury were used in this experiment. Food and water were provided ad libidum before and after surgery. Animals were handled and weighed daily from their arrival, seven days pre-surgery, to brain extraction three weeks post-surgery. Animals were handled in squads of 12, with n=10 per experimental condition. All animal procedures were approved by the Emory University Animal Care and Use Committee, Protocol #131-2002.
(§2) Isofluorane anesthesia was induced for four minutes and 45 seconds at 5% and maintained at 2.5%. Normal body temperature was maintained with a surgical heating pad placed beneath the sterile dressings. The scalp incision area was shaved and sterilized with iodine and isopropanol. A midline incision was made along the scalp and the fascia cleared to expose the surface of the skull. Medial, lateral, and dorsal stereotaxic coordinates were determined at bregma, and a 5-7 mm diameter bilateral craniotomy was performed mid-sagitally, 3 mm anterior to bregma. […] Sutures were used to close the incision after bleeding ceased. Animals were placed in individual heated, clean recovery cages until they awakened, and were returned to clean individual home cages with accessible moistened food pellets. Sham animals were anesthetized, and an incision was made at the top of the head. The fascia was cleared to expose bregma, then the incision was sutured closed. Sham surgeries were matched to lesion surgeries for all experimental conditions.
Sham (S) and lesion (L) animals were randomly assigned to one of three treatment groups: vehicle (VS, VL), acute withdrawal (AWS, AWL), and tapered withdrawal (TWS, TWL). […] Tapering was induced as halved dosages over the last two days of treatment. Dilutions for TW treatments were made with HBC stock. All injections were administered intraperitoneally at one hour post-injury, and subcutaneously at six hours post-injury and every 24 hours through the end of the treatment cycle. Five sets of 12 animals each were used, for a total n=10 for each experimental group over the entire experiment. Of these animals, all were used to acquire behavioral data, four samples were used for protein analysis, and six samples were used for histological analysis for each test condition.
Random order, blinded testing occurred under red light in a quiet environment one day before injury, and one and seven days post-withdrawal. Up to four animals were tested using the Digiscan Activity Monitoring System (AccuScan Instruments, inc. Columbus, Ohio) in each trial, with a total of three trials per test day. Rats were placed in the furthest left corner of the Digiscan Activity Box. At that time, the toggle switch was flipped to ‘on’. At exactly five minutes the computer ceased testing, assuring that all tests were the same length regardless of start time. Files were saved according to date and trial number, and the number of fecal boli recorded. Activity boxes were cleaned with 70% ethanol and dried between trials. Center time was defined by the computer as the amount of time the animal spent exploring the activity box away from the corners.
All results were expressed as the mean plus or minus the standard error of the mean. Statistical significance was set at p<0.05 for two-tailed tests, and data were analyzed using one-way analysis of variance (ANOVA) followed by LSD post hoc tests. […]

[2] = tested on: BBB; settings: in vitro (Betz et al. 1990); cited from earlier work
[3] = tested on: ischemic injury; settings: following ischemic injury in rats (Jiang et al. 1996); cited from earlier work
[4] = tested on: BDNF; test: Example 4: Western blotting densitometry, BDNF; type: in vivo, Sprague-Dawley rats
From the text: as §1, §2
(§3) Sham (S) and lesion (L) animals were randomly assigned to one of three treatment groups: vehicle (VS, VL), acute withdrawal (AWS, AWL), and tapered withdrawal (TWS, TWL). […] Tapering was induced as halved dosages over the last two days of treatment. Dilutions for TW treatments were made with HBC stock. […]
(§4) Brains for protein analysis were sectioned into the immediate area of the lesion and snap frozen in 2-methyl-butane chilled on dry ice. […] The amount of brain homogenate needed to standardize samples to 2 μg/μL for Western blotting was calculated from the results of these assays. […]

[5] = tested on: medial frontal cortex injury; test: Example 3: lesion reconstruction (lesion volume); type: in vivo, Sprague-Dawley rats; settings: tapered withdrawal, injured (TWI)
Experimental: Male Sprague-Dawley rats received either medial frontal cortex injury or sham surgery. Injections were given 1 and 6 hours post-injury, and every 24 hours for 7 days. Treatment groups (n=8) encompassed injured (I) and sham (S) acute withdrawal (AW), tapered withdrawal (TW) and vehicle (V) treatments. TW injections were progressively halved over the final two treatments. Behavioral testing was conducted post-surgery, mid- and post-withdrawal. Activity boxes were used to investigate vertical movements and exploration: Sensory neglect and anxiety behaviors were also analyzed. Brain harvesting was performed at 8 days or 3 weeks post-injury. Perfused tissue sections were analyzed for lesion volume and immunohistochemical response. Fresh brain tissue was flash frozen in chilled 2-methyl butane, and then homogenized for Western blot analysis.

[6] = tested on: HSP70; test: Example 4: Western blotting densitometry, HSP70; type: in vivo, Sprague-Dawley rats
From the text: as §1, §2, §3, §4

CC(=O)[C@H]1CC[C@H]2[C@@H]3CCC4=CC(=O)CC[C@]4(C)[C@H]3CC[C@]12C [progesterone, pregn-4-ene-3,20-dione]
center time ([1]; acute withdrawal, lesion (AWL), one and seven days post-withdrawal): increased center time compared to VL animals
center time ([1]; acute withdrawal, sham (AWS), one day post-withdrawal): significantly less center time compared to other shams
center time ([1]; sham groups (AWS, TWS, VS), seven days post-withdrawal): all sham animals spent equivalent center time
center time ([1]; tapered withdrawal, lesion (TWL), one and seven days post-withdrawal): increased center time over AWL animals
center time ([1]; tapered withdrawal, sham (TWS), one day post-withdrawal): increased center time at one day compared to VS animals
permeability of the BBB [2]: reduce the permeability of the BBB to macromolecules, but not ions
cell damage and neurological deficit [3]: reduce cell damage and neurological deficit
BDNF levels ([4]; acute withdrawal, lesion (AWL) vs VL, three weeks post-injury): AWL over VL
BDNF levels ([4]; sham animals (AWS, TWS, VS)): Sham animals did not display any differences between treatment groups
BDNF levels ([4]; tapered withdrawal, lesion (TWL) vs AWL, three weeks post-injury): increase in BDNF levels for TWL over AWL
lesion volume [5]: smallest lesion volume
HSP70 levels ([6]; all progesterone treatment vs vehicle-treated animals, three weeks post-injury): increased HSP70 compared to vehicle-treated animals
HSP70 levels ([6]; sham animals (AWS, TWS, VS)): Sham animals did not display any differences between treatment groups
HSP70 levels ([6]; tapered withdrawal, lesion (TWL) vs VL and AWL, three weeks post-injury): increased in TWL animals
